Test results as given in patent US20220265658A1, “PHARMACEUTICAL COMPOSITION COMPRISING A TETRAHYDROPYRAZOLOPYRIMIDINONE COMPOUND” (Idorsia Pharmaceuticals Ltd., priority 2019, published 2022).

Assays:
[1] = Stability testing of solid COMPOUND (powder in glass vial, HPLC 1 area vs reference stored at -20° C.); type: physicochemical; details: 260 nm
Description: Samples were directly analyzed by HPLC without dilution (expected concentration 1000 μg/mL). The HPLC area of each treated sample was compared to the HPLC area of the reference samples.
HPLC system: High pressure mixing Shimadzu Prominence (HPLC_08_DAD); Flow: 1.5 mL/min; Column temperature: 50° C.; Autosampler temperature: 25° C.; Injection volume: 3.0 μL; Column: Waters XBridge BEH C18 2.5 μm 2.1*50 mm Column XP; Wavelength: DAD 260 nm

[2] = Gravimetric vapour sorption (GVS) hygroscopicity; type: physicochemical; details: 25° C., mass change 40% to 80% RH, first adsorption scan
Description: Measurements are performed on a multi sample instrument SPS-100n (ProUmid, Ulm, Germany) operated in stepping mode at 25° C. The sample is allowed to equilibrate at 40% RH before starting a pre-defined humidity program (40-0-95-0-95-40% RH, steps of 5% ARH and with a maximal equilibration time of 24 hours per step are applied). About 20 to 30 mg of each sample is used. The hygroscopic classification is done on the basis of the European Pharmacopeia Technical Guide (1999, page 86), e.g., Non-hygroscopic: increase in mass is less than 0.2% mass/mass; slightly hygroscopic: increase in mass is less than 2% and equal to or greater than 0.2% mass/mass; hygroscopic: increase in mass is less than 15% and equal to or greater than 2% mass/mass. The mass change between 40% relative humidity and 80% relative humidity in the first adsorption scan is considered.

[3] = log P measured in octanol/phosphate buffer saline pH 7.4; type: physicochemical
Excerpt: […]

[4] = biological target: T1, C5AR1 (Homo sapiens, UniProt P21730); assay: In vitro assay: CHO-K1 C5AR1 beta-arrestin cell line (PathHunter), antagonism of C5a; type: cell-based; details: 1-10 nM C5a agonist; geometric mean; read-out: antagonistic activity (IC50)
T1 construct: host or cells: CHO-K1
T1 sequence (P21730 1-350): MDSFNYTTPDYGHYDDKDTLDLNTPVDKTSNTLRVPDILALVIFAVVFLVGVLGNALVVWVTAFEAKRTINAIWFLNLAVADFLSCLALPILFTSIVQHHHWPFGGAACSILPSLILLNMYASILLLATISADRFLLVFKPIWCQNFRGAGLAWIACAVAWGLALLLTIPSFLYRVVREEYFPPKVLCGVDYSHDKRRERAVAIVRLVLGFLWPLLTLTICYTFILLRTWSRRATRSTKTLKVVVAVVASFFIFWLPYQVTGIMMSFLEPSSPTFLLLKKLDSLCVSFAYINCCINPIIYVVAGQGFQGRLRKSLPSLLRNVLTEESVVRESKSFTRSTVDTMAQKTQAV
Description: Adherent cells (CHO-K1 C5AR1 beta-arrestin cell line, DiscoverX, CA USA) are washed with PBS, detached by incubation with Dissociation Buffer (Gibco Cat #13151-014, 2 ml per 165 cm2 dish) for 3 minutes, then washed with 10 ml PBS (without Mg++ and Ca++) and counted. 7500 cells/384-well are seeded in 384-well plates (Cell culture plate MTP384 white Polystyrene, Corning, Cat #3570) in 20 μl/well Cell plating medium (F12 HAMs/10% FCS/1% P/S) and incubated at 37° C./5% CO2/24 h.
5 μl Antagonist at 6-fold end concentration or DMSO control is added to assay medium and subsequently 5 μl 1-10 nM C5a agonist at 6 fold end concentration. Cells are centrifuged for 1 min at 1000 rpm and incubated for 1.5 hour in at 37° C. Plates are equilibrated at room temperature for several minutes before adding 12 μl/well Detection Reagent (PathHunter Detection Kit, DiscoverX, Cat #93-0001). Plates are centrifuged for 1 min at 1000 rpm and incubated for 45 minutes at RT before being measured on a Fluostar Optima, BMG Labtech. IC50 values are calculated from a serial dilution range of antagonist using inhouse software and given in nmol/l.
The calculated IC50 values may fluctuate depending on the daily cellular assay performance. Fluctuations of this kind are known to those skilled in the art. Average IC50 values from several measurements are given as geometric mean values.

## Cc1cccc(F)c1N1CCC(N2Cc3cn(CC(C)(F)F)nc3N(Cc3ccccc3C(F)(F)F)C2=O)CC1 [Amorphous, 2-(2,2-Difluoro-propyl)-5-[1-(2-fluoro-6-methyl-phenyl)-piperidin-4-yl]-7-(2-trifluoromethyl-benzyl)-2,4,5,7-tetrahydro-pyrazolo[3,4-d]pyrimidin-6-one]
[1]; closed vial for 30 days at 40° C. and 75% relative humidity
  HPLC 1 area compared to a reference that was stored at −20° C. for the same amount of time: 79%
[1]; closed vial for 30 days at room temperature and day light exposure
  HPLC 1 area compared to a reference that was stored at −20° C. for the same amount of time: 57%

## Cc1cccc(F)c1N1CCC(N2Cc3cn(CC(C)(F)F)nc3N(Cc3ccccc3C(F)(F)F)C2=O)CC1 [COMPOUND in crystalline form 1, 2-(2,2-Difluoro-propyl)-5-[1-(2-fluoro-6-methyl-phenyl)-piperidin-4-yl]-7-(2-trifluoromethyl-benzyl)-2,4,5,7-tetrahydro-pyrazolo[3,4-d]pyrimidin-6-one]
[1]; closed vial for 30 days at 40° C. and 75% relative humidity, listed as Form 1
  HPLC 1 area compared to a reference that was stored at −20° C. for the same amount of time: 100%
[1]; closed vial for 30 days at room temperature and day light exposure, listed as Form 1
  HPLC 1 area compared to a reference that was stored at −20° C. for the same amount of time: 100%
[2]
  Hygroscopicity as measured by GVS: non-hygroscopic

## Cc1cccc(F)c1N1CCC(N2Cc3cn(CC(C)(F)F)nc3N(Cc3ccccc3C(F)(F)F)C2=O)CC1 [COMPOUND, 2-(2,2-Difluoro-propyl)-5-[1-(2-fluoro-6-methyl-phenyl)-piperidin-4-yl]-7-(2-trifluoromethyl-benzyl)-2,4,5,7-tetrahydro-pyrazolo[3,4-d]pyrimidin-6-one]
[3]
  logP: 6.9
[4]
  IC50: 11 nM
